Reference: patent publication US11857653B2

Tests used:
[1] = pH cycling study: remineralization of artificial lesions (SMH, EFU); design: species or system Bovine; conditions: five days, calcium compounds used together with 100 ppm F treatments
Description: A pH cycling study was performed. The study was developed to simulate the spike in acid production after three meals during the course of a day.
Bovine enamel specimens were polished and artificial lesions formed by immersion of the specimens in a lesion forming solution consisting of 0.1 M lactic acid and 0.2% Carbopol C907 which was 50% saturated with hydroxyapatite and adjusted to pH 5.0. The average specimen surface microhardness (SMH) was determined from four indentations on the surface of each specimen, using a Vickers hardness indenter at a load of 200 g for 15 seconds. […] Specimens were divided into subgroups of 18 specimens balanced by post-demineralization surface microhardness (SMH) values.
Remineralization efficacy was evaluated under two different cyclic treatment regimens. Both regimens consisted of three one-minute fluoride treatment periods (100 ppm, pH=6.5), and three one-hour acid challenges in the lesion forming solution, with calcium introduced during the acid challenges.
The difference between the two treatment regimens was the relative order of the fluoride treatments and the acid challenges. In Regimen I, shown in Table 1, the demineralization event (Demin: Lactic Acid Challenge) occurred first, followed by the remineralization event (Remin: Artificial Saliva Soak). In Regimen II, shown in Table 2, the order of events was reversed, and the remineralization event occurred first, followed by the demineralization event.
During the acid challenge periods (Demin: Lactic Acid Challenge), a 15 ml aliquot of the lesion forming solution was transferred to a treatment beaker containing six enamel specimens. Calcium compounds at equimolar calcium concentration, were introduced to the solution 20 minutes after the start of the acid challenge.
The pH cycling regimens were repeated for five consecutive days. […] As a negative control, the calcium sources, as well as the fluoride source, were replaced with water. Also, for comparison purposes, a study was performed with only the fluoride source.
After five days of treatment and pH cycling, remineralization efficacy was measured from change in surface microhardness (SMH) and enamel fluoride uptake (EFU). The surface microhardness was measured as described above, where the indentations were measured next to the baseline indentations. The fluoride content was determined by micro-drilling to a depth of 100 micron into each tooth. The enamel powder from the drill hole was collected, dissolved (20 microliter of HClO4, 40 microliter Citrate/EDTA Buffer and 40 microliter deionized (DI) water) and analyzed for fluoride by comparison to a similarly prepared standard curve.

[2] = pH study: change in pH of lesion forming solution after addition of calcium compounds; assay type: physicochemical; conditions: 8 mM Ca added to lesion forming solution (pH 5.0), stirred 30 minutes at 37 degrees C.
Description: Powders were added and allowed to stir for 30 minutes at 37 degrees C. before measuring the pH.

| Compound | EFU, comparison between treatment groups (in words) ([1]; Regimen I) | SMH, comparison between treatment groups (in words) ([1]; Regimen I) | EFU, comparison between treatment groups (in words) ([1]; Regimen II) | SMH, comparison between treatment groups (in words) ([1]; Regimen II) | ΔpH [2] |
| --- | --- | --- | --- | --- | --- |
| O=P([O-])([O-])[O-].O=P([O-])([O-])[O-].[Ca+2].[Ca+2].[Ca+2] [Alpha-Tricalcium Phosphate] | comparable to the EFU of the highly soluble calcium compound (Calcium Chloride Dihydrate) treated specimens | comparable to the SMH of the highly soluble calcium compound (Calcium Chloride Dihydrate) treated specimens | equivalent to the EFU of the specimens only treated with 100 ppm F | comparable to the SMH of the specimens only treated with 100 ppm F | +0.33 |
| O.O.[Ca+2].[Cl-].[Cl-] [Calcium Chloride Dihydrate, reference compound] |  |  | highest values of EFU | highest values of SMH |  |
